Measurements: paper PMC7259638, “Characterization of the intestinal absorption of morroniside from Cornus officinalis Sieb. et Zucc via a Caco-2 cell monolayer model” (PLoS ONE, 2020)
Read-outs that look alike come from different tables or passages of the source.

Assays:
[1] = Transport of morroniside across Caco-2 cell monolayers (bidirectional, concentration and pH); format: in vitro ADME, human; settings: human
Description: (§1) An initial stock solution of morroniside in methanol was prepared. The stock solution was then diluted with HBSS (pH = 7.4) and the final concentration of methanol in HBSS remained at 0.5%. […] Caco-2 cells were seeded at a density of 5 × 10^4 cells/cm^2 in a 12-well plate. The transepithelial electrical resistance (TEER) value was measured with a Millipore ERS voltameter (Burlington, MA, USA) in order to evaluate and determine monolayer integrity. The monolayers were ready for experiments 19 to 22 days after seeding.
(§2) During incubation, the culture medium was refreshed every other day. The culture medium was discarded, and 500 μL of HBSS was added to each well and incubated for 20 min at 37 °C. Afterward, each well was rinsed two times with HBSS at 37 °C. Three concentrations of morroniside (5, 25 and 100 μM) were added to either the apical (AP, 0.5 mL) or basolateral side (BL, 1.5 mL), wheras the receiving chamber contained the corresponding volume of blank HBSS medium (pH = 7.4). Incubation was performed at 37 °C for 180 min, with shaking at 50 rpm. To assess drug transport from the AP to BL side, after incubation for 5, 15, 30, 45, 60, 90, 120 or 180 min, 50 μL of the solution from the BL or AP side was collected, and replaced with an equal volume of HBSS. To study the effect of pH on morroniside (5, 25 and 100 μM) transport, the experiments were performed in HBSS, which was adjusted to pH 6.0 or pH 7.4 on the AP side depending on the experiment, and to pH 7.4 on the BL side at 37 °C.
(§3) UPLC-MS/MS data acquisition was performed using Analyst 1.5.2 and MultiQuant 2.1.1 software (Applied Biosystems). All data are shown as the mean ± standard deviation, n = 3. The data were analyzed using SPSS 20.0. In the Caco-2 cell model, the rate of transport was obtained from the amount transported versus the time curve using linear regression. The permeability coefficient of each compound was calculated using the following equation: Papp = (dQ/dt)/(A·C0).
(§4) where, dQ/dt is the rate of drug transport, C0 is the initial concentration of the compound in the donor chamber and A represents the surface area of the cell monolayer. The efflux ratio P was determined by calculating the ratio of Papp in the secretory (BA) direction divided by that in the absorptive (AB) direction, according to the following equation: P=PappBA/PappAB

Caco-2 cell monolayers = assay: as above; format: in vitro ADME, human; settings: for PappAB AP-BL: AP to BL; for PappAB AP-BL / PappAB BL-AP: pH 7.4; for PappAB AP-BL / PappAB BL-AP / PappAB: 37 °C, n = 3; for PappAB BL-AP: BL to AP
Description: as §1, §2, §3, §4

Caco-2 cells = assay: MTT cytotoxicity assay; format: cell-based, human; settings: for Survival Rates (%, mean): Caco-2 cells, five replicates
Description: The conditions for Caco-2 cell culture have been described previously. Briefly, Caco-2 cells were cultured in a humidified atmosphere of 5% CO2 and 95% air at 37 °C. The culture medium (DMEM) was supplemented with 10% (v/v) fetal bovine serum, 1% nonessential amino acids, 1% penicillin, and streptomycin. The medium was changed every 2–3 days. When the cell monolayer reached 80–90% confluence, the cells were detached with a solution of trypsin (0.5 mg/mL) and EDTA (0.2 mg/mL) and reseeded at a density of 5×10^4 cells/cm^2.
For the cytotoxicity assay, the cells were incubated in 96-well plates for 24 h. Morroniside dissolved in methanol was diluted with DMEM to terminal concentrations that ranged from 0.1 μM to 200 μM, or CO at 0.63 mg/mL (containing 25 μM morroniside). A negative control group was obtained by the addition of DMEM with methanol at 0.5%(v/v). The cell culture medium treated group was treated only with DMEM. MTT solution was prepared to 1 mg/mL in phosphate-buffered saline and filtered through a 0.2 μm filter. Then, 20 μL of MTT was added into each well. Cells were incubated for 4 h at 37 °C with 5% CO2, 95% air and 100% humidity. After 4 h, the MTT solution was removed and replaced with 150 μL of DMSO. The plate was further incubated for 5 min at room temperature (20 °C), and the optical density of the wells was measured using a plate reader at a wavelength of 490 nm.

SMILES: COC(=O)C1=CO[C@@H](O[C@@H]2O[C@H](CO)[C@@H](O)[C@H](O)[C@H]2O)[C@@H]2[C@H](C)O[C@@H](O)C[C@H]12 [morroniside, Morroniside]
- Papp A→B at 180 min, 5 μM ([1]; Caco-2, AP side pH 6.0, BL side pH 7.4, 5μM morroniside, 37 °C, n = 3, read-out: PappAB): 0.55 ± 0.07 ×10⁻⁶ cm/s
- Papp A→B at 180 min, 100 μM ([1]; Caco-2, AP side pH 6.0, BL side pH 7.4, 100μM morroniside, 37 °C, n = 3, read-out: PappAB): 0.62 ± 0.1 ×10⁻⁶ cm/s
- Papp A→B at 180 min, 5 μM ([1]; Caco-2, pH 7.4, 5 μM morroniside, AP to BL, over 3 h, read-out: Papp (AP to BL)): 2.66 ×10⁻⁶ cm/s
- Papp A→B at 180 min, 25 μM ([1]; Caco-2, pH 7.4, 25 μM morroniside, AP to BL, pH 7.4, 37 °C, n = 3, read-out: PappAB AP-BL): 1.83 ± 0.65 ×10⁻⁶ cm/s
- Papp A→B at 180 min, 100 μM ([1]; Caco-2, pH 7.4, 100 μM morroniside, AP to BL, over 3 h, read-out: Papp (AP to BL)): 1.59 ×10⁻⁶ cm/s
- Papp A→B at 180 min, 5 μM ([1]; Caco-2, pH 7.4, AP side pH 7.4, 5μM morroniside, 37 °C, n = 3, read-out: PappAB): 1.88 ± 0.49 ×10⁻⁶ cm/s
- Papp A→B at 180 min, 25 μM ([1]; Caco-2, pH 7.4, AP side pH 7.4, 25μM morroniside, 37 °C, n = 3, read-out: PappAB): 1.92 ± 0.52 ×10⁻⁶ cm/s
- Papp A→B at 180 min ([1]; Caco-2, pH 7.4, range over 5, 25 and 100 μM, AP-to-BL, read-out: apparent permeability coefficient (Papp) AP-to-BL): 1.59 to 2.66 ×10⁻⁶ cm/s
- Papp B→A at 180 min, 5 μM ([1]; Caco-2, pH 7.4, 5 μM morroniside, BL to AP, over 3 h): 4.1 ×10⁻⁶ cm/s
- Papp B→A at 180 min, 100 μM ([1]; Caco-2, pH 7.4, 100 μM morroniside, BL to AP, over 3 h): 2.67 ×10⁻⁶ cm/s
- Papp B→A at 180 min ([1]; Caco-2, pH 7.4, range over 5, 25 and 100 μM, BL-to-AP, read-out: apparent permeability coefficient (Papp) BL-to-AP): 2.67 to 4.1 ×10⁻⁶ cm/s
- Papp B→A at 180 min, 25 μM ([1]; Caco-2, 25 μM morroniside, BL to AP, pH 7.4, 37 °C, n = 3, read-out: PappAB BL-AP): 2.92 ± 0.63 ×10⁻⁶ cm/s
- PappAB AP-BL (Caco-2 cell monolayers; 5 μM morroniside): 2.66±0.60 ×10^-6cm/s
- PappAB BL-AP (Caco-2 cell monolayers; 5 μM morroniside): 4.10±0.86 ×10^-6cm/s
- PappAB AP-BL (Caco-2 cell monolayers; 100 μM morroniside): 1.59±0.41 ×10^-6cm/s
- PappAB BL-AP (Caco-2 cell monolayers; 100 μM morroniside): 2.67±0.48 ×10^-6cm/s
- PappAB (Caco-2 cell monolayers; AP side pH 6.0, BL side pH 7.4, 25μM morroniside): 0.61±0.15 ×10^-6cm/s
- PappAB (Caco-2 cell monolayers; AP side pH 7.4, 100μM morroniside): 1.86±0.33 ×10^-6cm/s
- intestinal absorption assessed from Papp level (Caco-2 cell monolayers; Papp values at the level of 10^−6, Caco-2 transwell): poor intestinal absorption
- PappAB at pH 7.4 compared with pH 6.0 (Caco-2 cell monolayers; three concentrations (5, 25, 100 μM), p<0.05): significantly higher
- Survival Rates (%, mean) (Caco-2 cells; 0.1 μM): 105.12%
- Survival Rates (%, mean) (Caco-2 cells; 1 μM): 108.33%
- Survival Rates (%, mean) (Caco-2 cells; 5 μM): 101.62%
- Survival Rates (%, mean) (Caco-2 cells; 10 μM): 102.41%
- Survival Rates (%, mean) (Caco-2 cells; 50 μM): 95.21%
- Survival Rates (%, mean) (Caco-2 cells; 100 μM): 91.77%
- Survival Rates (%, mean) (Caco-2 cells; 200 μM): 90.72%
- reduction of viability of Caco-2 cells (Caco-2 cells; highest concentration (200 μM)): 8%
- cytotoxicity toward Caco-2 cells (in words) (Caco-2 cells; morroniside 0.1 to 200 μM): nontoxic
